Results on four molecules are retold here after US8653024B2, “Use of AMPs for treatment of UTI/cystitis” (Adenium Biotech Aps, priority 2009, dated 2014).

The test system of assay [1] is Escherichia coli DSA 443. The assay is described as follows: Murine urinary tract infection (UTI) model, Example 1: colony counts in urine, bladder and kidney. In kind it is in vivo. To be noted: for Bacterial reduction in the urine compared to vehicle treatment: p<0.001; for Mean colony counts + SEM, bladder day 3 / Mean colony counts + SEM, kidney day 3 / Mean colony counts + SEM, urine day 1 / Mean colony counts + SEM, urine day 2 / Mean colony counts + SEM, urine day 3: female OF-1 mice; for Mean colony counts + SEM, urine day 1: day 1 post infection, before first treatment; for Mean colony counts + SEM, urine day 2: day 2 post infection.

The test system of assay [2] is Escherichia coli DSA 443. The assay is described as follows: Murine urinary tract infection model, Example 2 (carried out as described in Example 1). In kind it is in vivo. To be noted: for Mean colony counts ± SEM, bladder day 3 / Mean colony counts ± SEM, kidney day 3 / Mean colony counts ± SEM, urine day 1 / Mean colony counts ± SEM, urine day 3: mice; for Mean colony counts ± SEM, bladder day 3 / Mean colony counts ± SEM, kidney day 3 / Mean colony counts ± SEM, urine day 3: day 3 post infection; for Mean colony counts ± SEM, urine day 1: day 1 post infection, before first treatment; for Bacterial reduction in the kidneys compared to vehicle treatment / Bacterial reduction in the urine compared to vehicle treatment / Bacterial reduction in the bladder compared to vehicle treatment: 10 mg/kg i.v. BID; for Bacterial reduction in the kidneys compared to vehicle treatment: p<0.05; for Effect of treatment compared to Meropenem: 10 mg/kg vs 40 mg/kg Meropenem; for Bacterial reduction in the urine compared to vehicle treatment / Bacterial reduction in the bladder compared to vehicle treatment: after 2 days of treatment; for Bacterial reduction in the urine compared to vehicle treatment: p<0.001; for Bacterial reduction in the bladder compared to vehicle treatment: p<0.01. Here is the method: The efficacy of Arenicin administered BID i.v. days 1 and 2 post infection at a rate of 10 ml/kg to female OF-1 mice (14/group), at a dosage of 10 mg/kg, was assessed against E. coli DSA 443. Treatment with 40 mg/kg Meropenem was included as a positive control and treatment with vehicle was included as a negative control.
Starting on day −4 before inoculation, mice were given drinking water containing 5% glucose. On day 0, the bladder of each mouse was emptied of urine, and each mouse was inoculated with 50 microliters bacteria suspension (E. coli DSA 443 9.3 log10 CFU/ml) via a catheter in the urethra into the bladder.
Urine was sampled from all mice at 24 hours post infection, before the first treatment, and colony counts were determined. 48 and 72 hours post infection, urine was sampled from all mice and kept at room temperature until analyzed. CFU was determined in urine samples within 2-3 hours after sampling. On day 3, mice were sacrificed by cervical dislocation and the bladders and kidneys were collected and stored at −80° C. until analyses. Frozen organs were thawed and homogenized with steel beads on a tissue lyser. All samples, urine, kidney and bladder, were 10 fold diluted in saline and 20 microliter spots were applied on blue agar plates in duplicates. Also undiluted urine (100 microliters if possible) was spread on a separate agar plate to determine the colony counts lowest possible detection level (10 CFU/ml). All agar plates were incubated 18-22 hrs at 35° C. in ambient air.
The CFU numbers are log10 transformed before performing calculations to obtain a normal (or closer to normal) distribution. The data are presented below in Table 1 as mean±SEM. Significance levels were calculated with one-way ANOVA, Dunnett's multiple comparison test and are indicated by the stars in the figures.
The experiment was carried out as described in Example 1.
The efficacies of Variant1 and Variant2 (10 mg/kg) (formulated in Ringer acetate pH 6) were investigated following intravenous (i.v.) administration BID day 1 and day 2 post infection with Escherichia coli DSA 443 (clinical isolate, SSI) in a murine Urinary Tract Infection model. Treatment with 40 mg/kg Meropenem was included as a positive control group.

[3] abbreviates: 10 mg/kg i.v. BID day 1 and day 2.

Several values for one entry are separate records, joined by “and”; a condition that tells them apart may be missing. Equal values may be shown once. Entries after “also recorded” stand apart in the source; their conditions may differ.

With “Arenicin: antimicrobial polypeptide having the amino acid sequence shown in SEQ ID NO: 1 (GFCWYVCVYRNGVRVCYRRCN; mat_peptide (1)..(21); listed as Arenicola marina)”, in the assay with Escherichia coli DSA 443 [1] (10 mg/kg vs 40 mg/kg Meropenem, urine, bladder), the “Effect (CFU reduction) compared to Meropenem” value is listed as “comparable to that of Meropenem; also recorded: comparable to the effect of the Meropenem”. Besides, the “Bacterial reduction in the urine compared to vehicle treatment” value (from here on “Bacterial reduction in the urine”) in the assay with Escherichia coli DSA 443 [1] (after 1 day of treatment, 10 mg/kg i.v. BID) is given as “significant bacterial reduction”; in the assay on Escherichia coli DSA 443 [1] (after 2 days of treatment, 10 mg/kg i.v. BID, 10 mg/kg) it was “significantly (p<0.001) reduced the bacterial loads; also recorded: significant bacterial reduction”. Moreover, the “Bacterial reduction in the bladder compared to vehicle treatment” value (“Bacterial reduction in the bladder” for short) with Escherichia coli DSA 443 [1] (after 2 days of treatment, 10 mg/kg i.v. BID, p<0.01, 10 mg/kg) is reported as “Significant lower (p<0.01) CFU levels; also recorded: significant bacterial reduction”. Besides, the “Bacterial reduction in the kidneys compared to vehicle treatment” value (shortened to “Bacterial reduction in the kidneys”) with Escherichia coli DSA 443 [1] (day 3 post infection, 10 mg/kg i.v. BID, 10 mg/kg) is “not significantly lower than the vehicle group; also recorded: slight reduction”. Moreover, the “Mean colony counts + SEM, bladder day 3” value in the assay with Escherichia coli DSA 443 [1] (bladder, day 3 post infection, 10 mg/kg i.v. BID days 1 and 2, 10 mg/kg) stood at 3.8±0.2 log10 CFU. The “Mean colony counts + SEM, kidney day 3” value in the assay with Escherichia coli DSA 443 [1] (day 3 post infection, 10 mg/kg i.v. BID days 1 and 2, 10 mg/kg) is recorded as 1.9±0.3 log10 CFU. The “Mean colony counts + SEM, urine day 1” value in the assay on Escherichia coli DSA 443 [1] (urine, 10 mg/kg group, 10 mg/kg) was found to be 6.9±0.3 log10 CFU. Moreover, in the assay with Escherichia coli DSA 443 [1] (urine, after one day of treatment, 10 mg/kg i.v. BID, 10 mg/kg), the “Mean colony counts + SEM, urine day 2” value is on record as 3.2±0.5 log10 CFU. For the same molecule, in the assay on Escherichia coli DSA 443 [1] (urine, day 3 post infection, after completed treatment, 10 mg/kg i.v. BID days 1 and 2, 10 mg/kg), the “Mean colony counts + SEM, urine day 3” value was 2.3±0.3 log10 CFU and 2.3 ± 0.2 log10 CFU.
Regarding `C[C@@H](O)[C@H]1C(=O)N2C(C(=O)O)=C(S[C@@H]3CN[C@H](C(=O)N(C)C)C3)[C@H](C)[C@H]12` [Meropenem, reference compound], in the assay with Escherichia coli DSA 443 [2] (40 mg/kg (positive control)), the “Mean colony counts ± SEM, bladder day 3” value turned out to be 3.9 ± 0.2 log10 CFU; the “Mean colony counts ± SEM, kidney day 3” value stood at 1.8 ± 0.4 log10 CFU; the “Mean colony counts ± SEM, urine day 3” value is on record as 1.8 ± 0.4 log10 CFU. Moreover, the “Mean colony counts ± SEM, urine day 1” value in the assay with Escherichia coli DSA 443 [2] (40 mg/kg group (positive control)) is on record as 6.3 ± 1.0 log10 CFU. Besides, the “Bacterial loads in the kidneys compared to vehicle” value in the assay with Escherichia coli DSA 443 [1] (40 mg/kg, day 3 post infection) is given as “slightly, but not significantly, reduced”. For the same molecule, the “Mean colony counts + SEM, bladder day 3” value in the assay on Escherichia coli DSA 443 [1] (bladder, day 3 post infection, 40 mg/kg (positive control)) was determined as 3.9 ± 0.3 log10 CFU. For the same molecule, the “Mean colony counts + SEM, kidney day 3” value in the assay with Escherichia coli DSA 443 [1] (day 3 post infection, 40 mg/kg (positive control)) is recorded as 1.8 ± 0.3 log10 CFU. Also, in the assay with Escherichia coli DSA 443 [1] (urine, 40 mg/kg group (positive control)), the “Mean colony counts + SEM, urine day 1” value is 7.0 ± 0.4 log10 CFU. The “Mean colony counts + SEM, urine day 2” value in the assay on Escherichia coli DSA 443 [1] (urine, 40 mg/kg (positive control)) is given as 2.7 ± 0.3 log10 CFU. Also, in the assay on Escherichia coli DSA 443 [1] (urine, day 3 post infection, 40 mg/kg (positive control)), the “Mean colony counts + SEM, urine day 3” value was 2.1 ± 0.3 log10 CFU.
For the molecule “Variant2: antimicrobial polypeptide of SEQ ID NO: 3; W4G+Y5H substitution as compared to Arenicin (GFCGHVCVYRNGVRVCYRRCN)”, in the assay on Escherichia coli DSA 443 [2], the “Bacterial reduction in the kidneys” value was “significant bacterial reduction”, the “Effect of treatment compared to Meropenem” value is recorded as “comparable to the effect of treatment with Meropenem”, the “Bacterial reduction in the urine” value is reported as “significant bacterial reduction” and the “Bacterial reduction in the bladder” value was “significant bacterial reduction”. Besides, in the assay with Escherichia coli DSA 443 [2] (setting [3]), the “Mean colony counts ± SEM, bladder day 3” value came to 3.7 ± 0.5 log10 CFU; the “Mean colony counts ± SEM, kidney day 3” value worked out at 1.5 ± 0.4 log10 CFU; the “Mean colony counts ± SEM, urine day 3” value came out at 3.2 ± 0.5 log10 CFU. Moreover, in the assay with Escherichia coli DSA 443 [2] (10 mg/kg group), the “Mean colony counts ± SEM, urine day 1” value turned out to be 5.7 ± 1.0 log10 CFU.
With “Variant1: antimicrobial polypeptide of SEQ ID NO: 2; Y5N+Y17H substitution as compared to Arenicin (SEQ ID NO: 1) (GFCWNVCVYRNGVRVCHRRCN)”, in the assay on Escherichia coli DSA 443 [2], the “Bacterial reduction in the kidneys” value is recorded as “significant bacterial reduction”, the “Effect of treatment compared to Meropenem” value is “comparable to the effect of treatment with Meropenem”, the “Bacterial reduction in the urine” value is “significant bacterial reduction” and the “Bacterial reduction in the bladder” value is reported as “significant bacterial reduction”. In addition, in the assay on Escherichia coli DSA 443 [2] (setting [3]), the “Mean colony counts ± SEM, bladder day 3” value came to 3.8 ± 0.4 log10 CFU; the “Mean colony counts ± SEM, kidney day 3” value is reported as 1.3 ± 0.2 log10 CFU; the “Mean colony counts ± SEM, urine day 3” value turned out to be 2.6 ± 0.4 log10 CFU. Also, in the assay on Escherichia coli DSA 443 [2] (10 mg/kg group), the “Mean colony counts ± SEM, urine day 1” value was 7.1 ± 0.8 log10 CFU.
